The text below walks through data of patent US20180352841A1, “COMPOSITION HAVING RICH-TASTE IMPARTING FUNCTION” (AJINOMOTO CO., INC., priority 2016, published 2018).

Test [1] is described as follows: Organoleptic evaluation of thickness in cookie with 5 ppm γ-Glu-Val-Gly (Example 4). To be noted: for Thickness (initial taste) / Thickness (middle to aftertaste): cookie, γ-Glu-Val-Gly 5 ppm in dough (control = score 0), score 0 to 3, L-tartaric acid 5 ppm, sodium L-tartrate 2 ppm, adipic acid 20 ppm, citric acid 1 ppm; for Thickness (initial taste): 0 to 4 seconds after eating; for Thickness (middle to aftertaste): 4 to 15 seconds after eating; for Thickness-enhancing effect for the initial taste: cookie with 5 ppm γ-Glu-Val-Gly, text summary of Table 4. Here is the method: Organoleptic evaluation was performed by 2 persons of special panelists for strength of “thickness” of each sample, to determine thickness-enhancing effects (thickness-boosting effect) of the ingredients to be evaluated. The organoleptic evaluation was performed by a four grade scoring method for initial taste, middle taste, and aftertaste (sensed in the periods of 0 to 4 second, 4 to 10 seconds, and 10 to 15 seconds after eating, respectively, which periods are defied for a solid) with scores of 0 to 3, wherein score 0 means no effect (i.e. strength of the thickness is the same as that of the control sample, score 1 means weakly effective, score 2 means effective, and score 3 means strongly effective.

Test [2] in a line: Organoleptic evaluation of coffee-like thickness in milk coffee with 0.2 ppm γ-Glu-Val-Gly (Example 1). To be noted: for Coffee-like thickness (initial taste) / Coffee-like thickness (middle to aftertaste): milk coffee + 0.2 ppm γ-Glu-Val-Gly (control sample = score 0); for Coffee-like thickness (initial taste): 0 to 1 second after drinking, score 0 to 3 (0 no effect, 1 weakly effective, 2 effective, 3 strongly effective), 2 to 4 panelists, ingredient ppm: succinic acid 5, proline 12.5, KH2PO4 3, K2HPO4 12.5, L-tartaric acid 6, adipic acid 25, citric acid 3.5, CaCl2 50, MgCl2 12.5, DL-malic acid 3, trisodium citrate 0.8, sodium fumarate 1.5; for Coffee-like thickness (middle to aftertaste): 1 to 5 seconds after drinking, score 0 to 3, ingredient ppm as in Table 1 c0 (succinic acid 5, proline 12.5, KH2PO4 3, K2HPO4 12.5, L-tartaric acid 6, adipic acid 25, citric acid 3.5, CaCl2 50, MgCl2 12.5, DL-malic acid 3, trisodium citrate 0.8, sodium fumarate 1.5); for Thickness-enhancing effect for the initial taste: milk coffee + 0.2 ppm γ-Glu-Val-Gly, summary of Table 1. On the procedure:
As an evaluation system, milk coffee (“Birdy Robusta”, Ajinomoto Co., (Thailand) Ltd.) was used. To this milk coffee, 0.2 ppm of γ-Glu-Val-Gly was added, to prepare a control sample.
Organoleptic evaluation was performed by 2 to 4 persons of special panelists for strength of “coffee-like thickness” of each sample, to determine thickness-enhancing effects (thickness-boosting effect) of the ingredients to be evaluated.

A short description of test [3]: Organoleptic evaluation of coffee-like thickness in milk coffee with 0.8 ppm γ-Glu-Abu (Example 3). Conditions: for Coffee-like thickness (initial taste) / Coffee-like thickness (middle to aftertaste): milk coffee + γ-Glu-Abu 0.8 ppm (control = score 0), score 0 to 3, L-tartaric acid 6 ppm, adipic acid 25 ppm, citric acid 3.5 ppm; for Coffee-like thickness (initial taste): 0 to 1 second; for Coffee-like thickness (middle to aftertaste): 1 to 5 seconds; for thickness-enhancing effect for initial taste: milk coffee + 0.8 ppm γ-Glu-Abu, summary of Table 3. On the procedure: (§1) Organoleptic evaluation was performed by 2 to 4 persons of special panelists for strength of “coffee-like thickness” of each sample, to determine thickness-enhancing effects (thickness-boosting effect) of the ingredients to be evaluated. The organoleptic evaluation was performed by a four grade scoring method for initial taste, middle taste, and aftertaste (sensed in the periods of 0 to 1 second, 1 to 3 seconds, and 3 to 5 seconds after drinking, respectively, which periods are defined for a liquid) with scores of 0 to 3, wherein score 0 means no effect (i.e. strength of the thickness is the same as that of the control sample), score 1 means weakly effective, score 2 means effective, and score 3 means strongly effective.
(§2) As an evaluation system, milk coffee (“Birdy Robusta”, Ajinomoto Co., (Thailand) Ltd.) was used.
(§3) Organoleptic evaluation was performed for strength of “coffee-like thickness” of each sample by 2 persons of special panelists with the same criteria as those of Example 1 wherein score 0 was defined to mean the strength of thickness of each control sample, to determine thickness-enhancing effects (thickness-boosting effects) of the ingredients to be evaluated.

Test [4] can be described thus: Organoleptic evaluation of coffee-like thickness in milk coffee with 0.6 ppm γ-Glu-Abu-Gly (Example 3). Conditions: for Coffee-like thickness (initial taste) / Coffee-like thickness (middle to aftertaste): milk coffee + γ-Glu-Abu-Gly 0.6 ppm (control = score 0), score 0 to 3, L-tartaric acid 6 ppm, adipic acid 25 ppm, citric acid 3.5 ppm; for Coffee-like thickness (initial taste): 0 to 1 second; for Coffee-like thickness (middle to aftertaste): 1 to 5 seconds; for thickness-enhancing effect for initial taste: milk coffee + 0.6 ppm γ-Glu-Abu-Gly, summary of Table 3. Here is the method:
as §1, §2, §3

The nature of test [5]: Organoleptic evaluation of thickness in carbonated lemon drink with 15 ppm γ-Glu-Val-Gly (Example 2). To be noted: for Thickness (initial taste) / Thickness (middle to aftertaste): carbonated lemon drink + 15 ppm γ-Glu-Val-Gly (control = score 0), score 0 to 3, L-tartaric acid 24 ppm, adipic acid 50 ppm, citric acid 3.5 ppm; for Thickness (initial taste): 0 to 1 second; for Thickness (middle to aftertaste): 1 to 5 seconds.

Test [6] in a line: Organoleptic evaluation of salty taste-like thickness in potage soup with 2 ppm γ-Glu-Val-Gly (Example 2). Conditions: for Salty taste-like thickness (initial taste) / Salty taste-like thickness (middle to aftertaste): potage soup + 2 ppm γ-Glu-Val-Gly (control = score 0), score 0 to 3, L-tartaric acid 6 ppm, adipic acid 25 ppm, citric acid 2 ppm; for Salty taste-like thickness (initial taste): 0 to 1 second; for Salty taste-like thickness (middle to aftertaste): 1 to 5 seconds.

The mark [7] stands for this setting: carbonated lemon drink + 15 ppm γ-Glu-Val-Gly, Table 2.
Where [8] appears, read: potage soup + 2 ppm γ-Glu-Val-Gly, Table 2.

Molecules are shown by their SMILES.

`O=C([O-])[C@H](O)[C@@H](O)C(=O)[O-].[Na+].[Na+]` [Sodium L-tartrate]: in test [1], the “Thickness (initial taste)” value was determined as 0.7 and the “Thickness (middle to aftertaste)” value is listed as 0.5.

As for `O=C(O)CC(O)(CC(=O)O)C(=O)O` [Citric acid, reference compound], the “Coffee-like thickness (initial taste)” value in test [2], in test [3] and in test [4] was 0 throughout. Also, the “Coffee-like thickness (middle to aftertaste)” value in test [2], in test [3] and in test [4] was 0 each time. In addition, the “Thickness (initial taste)” value in test [1] and in test [5] was 0 throughout. For the same compound, the “Thickness (middle to aftertaste)” value in test [1] and in test [5] was 0 in each case. Also, the thickness-enhancing effect entry in test [5] (setting [7]) and in test [6] (setting [8]) was “not observed” in each case. Further, in test [6], the “Salty taste-like thickness (initial taste)” value is 0. Further, the “Salty taste-like thickness (middle to aftertaste)” value in test [6] came to 0.

Take `O=C([O-])CC(O)(CC(=O)[O-])C(=O)[O-].[Na+].[Na+].[Na+]` [Trisodium citrate]: in test [2], the “Coffee-like thickness (initial taste)” value was determined as 0 and the “Coffee-like thickness (middle to aftertaste)” value stood at 0.

Take `[Ca+2].[Cl-].[Cl-]` [Calcium chloride]: in test [2], the “Coffee-like thickness (initial taste)” value is 0 and the “Coffee-like thickness (middle to aftertaste)” value was 0.

In the case of `O=C(O)[C@H](O)[C@@H](O)C(=O)O` [L-Tartaric acid], in test [2], the “Coffee-like thickness (initial taste)” value worked out at 1.5, the “Coffee-like thickness (middle to aftertaste)” value is recorded as 0 and the “Thickness-enhancing effect for the initial taste” value is “observed”. In test [3], the “thickness-enhancing effect for initial taste” value is “observed”, the “Coffee-like thickness (initial taste)” value turned out to be 1.5 and the “Coffee-like thickness (middle to aftertaste)” value is on record as 0. For the same compound, in test [4], the “thickness-enhancing effect for initial taste” value is recorded as “observed”, the “Coffee-like thickness (initial taste)” value is reported as 1.5 and the “Coffee-like thickness (middle to aftertaste)” value is reported as 0. In test [1], the “Thickness-enhancing effect for the initial taste” value was “observed”, the “Thickness (initial taste)” value is recorded as 1.5 and the “Thickness (middle to aftertaste)” value was determined as 1.0. In addition, in test [5], the “Thickness (initial taste)” value was 1.0 and the “Thickness (middle to aftertaste)” value was found to be 0. For the same compound, the “thickness-enhancing effect for initial taste” value in test [5] (setting [7]) was “observed”. Also, in test [6], the “Salty taste-like thickness (initial taste)” value is 1.3 and the “Salty taste-like thickness (middle to aftertaste)” value was found to be 0. In test [6] (setting [8]), the “thickness-enhancing effect for initial taste” value was “observed”.

For the compound `O=C([O-])/C=C/C(=O)[O-].[Na+].[Na+]` [Sodium fumarate], in test [2], the “Coffee-like thickness (initial taste)” value is 0 and the “Coffee-like thickness (middle to aftertaste)” value amounted to 0.

Turning to `O=C(O)CCC(=O)O` [Succinic acid], in test [2], the “Coffee-like thickness (initial taste)” value was found to be 0 and the “Coffee-like thickness (middle to aftertaste)” value was 2.5.

As to `[Cl-].[Cl-].[Mg+2]` [Magnesium chloride], in test [2], the “Coffee-like thickness (initial taste)” value worked out at 0 and the “Coffee-like thickness (middle to aftertaste)” value is recorded as 0.

On to `O=P([O-])([O-])O.[K+].[K+]` [Dipotassium hydrogenphosphate], for which, in test [2], the “Coffee-like thickness (initial taste)” value is 0 and the “Coffee-like thickness (middle to aftertaste)” value was found to be 1.0.

With `O=C(O)CCCCC(=O)O` [Adipic acid], the “Coffee-like thickness (initial taste)” value in test [2], in test [3] and in test [4] was 1.0 each time. Also, the “Coffee-like thickness (middle to aftertaste)” value in test [2] is given as 0; in test [3], 0.5; in test [4] it was 1.0. Further, the “Thickness-enhancing effect for the initial taste” value in test [2] and in test [1] was “observed” throughout. Also, the “thickness-enhancing effect for initial taste” value in test [3], in test [4], in test [5] (setting [7]) and in test [6] (setting [8]) was “observed” each time. Besides, the “Thickness (initial taste)” value in test [1] was found to be 1.2; in test [5], 1.5. Also, the entries for the “Thickness (middle to aftertaste)” value in test [1] and in test [5] were 1.0 and 0, respectively. The “Salty taste-like thickness (initial taste)” value in test [6] is 1.3. In addition, in test [6], the “Salty taste-like thickness (middle to aftertaste)” value amounted to 0.

As for `O=C(O)CC(O)C(=O)O` (racemic) [DL-Malic acid], in test [2], the “Coffee-like thickness (initial taste)” value came out at 0 and the “Coffee-like thickness (middle to aftertaste)” value was 0.

As to `O=P([O-])(O)O.[K+]` [Potassium dihydrogenphosphate], in test [2], the “Coffee-like thickness (initial taste)” value is on record as 0 and the “Coffee-like thickness (middle to aftertaste)” value stood at 0.5.

Take `O=C(O)[C@@H]1CCCN1` [Proline]: in test [2], the “Coffee-like thickness (initial taste)” value was 0 and the “Coffee-like thickness (middle to aftertaste)” value was found to be 1.5.
